{
  "source": "patent US12352767B2",
  "about": "“Method of treating cognitive decline associated with neurological diseases based on a decrease in FLT4 expression or activity” (University of Virginia Patent Foundation, priority 2018, dated 2025)",
  "key": {"[1]": {"system": "Ly6GnegCD45+CD11b+ brain myeloid cells", "assay": "Single cell RNA-seq of brain myeloid cells (microglia) of WT and 5xFAD mice (Table 6, Table 7)", "type": "in vivo", "parameters": "key to Rel. Expr. 5xFAD Vis. + photo: HS-Q7 / Rel. Expr. 5xFAD Vis. + photo: Axl / Rel. Expr. 5xFAD Vis.: Ctdnep1 / Rel. Expr. 5xFAD Vis. + photo: Ctdnep1 / Rel. Expr. 5xFAD Vis.: Fabp5 / Rel. Expr. 5xFAD Vis. + photo: Fabp5 / Rel. Expr. 5xFAD Vis.: Nampt / Rel. Expr. 5xFAD Vis. + photo: Nampt / Rel. Expr. 5xFAD Vis. + photo: Tfdp1 / Rel. Expr. 5xFAD Vis. + photo: Hspb11 / Rel. Expr. 5xFAD Vis.: Tyrobp / Rel. Expr. 5xFAD Vis. + photo: Tyrobp / Rel. Expr. 5xFAD Vis. + photo: Tpt1 / Rel. Expr. 5xFAD Vis.: Fth1 / Rel. Expr. 5xFAD Vis. + photo: Fth1 / Rel. Expr. 5xFAD Vis. + photo: Eef1a1 / Rel. Expr. 5xFAD Vis.: Lgals3bp / Rel. Expr. 5xFAD Vis. + photo: Lgals3bp / Rel. Expr. 5xFAD Vis.: Ifitm3 / Rel. Expr. 5xFAD Vis. + photo: Ifitm3 / Rel. Expr. 5xFAD Vis.: Atp5h / Rel. Expr. 5xFAD Vis. + photo: Atp5h / Rel. Expr. 5xFAD Vis.: Fau / Rel. Expr. 5xFAD Vis. + photo: Fau / Rel. Expr. 5xFAD Vis.: Ftl1 / Rel. Expr. 5xFAD Vis. + photo: Ftl1 / Rel. Expr. 5xFAD Vis.: H2-K1 / Rel. Expr. 5xFAD Vis. + photo: H2-K1 / Rel. Expr. 5xFAD Vis. + photo: Tmsb4x / Rel. Expr. 5xFAD Vis. + photo: Uba52 / Rel. Expr. WT Vis.: Hexb / Rel. Expr. 5xFAD Vis.: Hexb / Rel. Expr. WT Vis.: Lgmn / Rel. Expr. 5xFAD Vis.: Lgmn / Rel. Expr. 5xFAD Vis. + photo: Rtp4 / Rel. Expr. 5xFAD Vis.: Lpl / Rel. Expr. 5xFAD Vis. + photo: Lpl: A “+” refers to relative upregulation of gene expression for the noted conditions; A “-” refers to relative downregulation of gene expression for the noted conditions", "procedure": "Effects of meningeal ablation on gene expression were studied in 5×FAD mice. Single cell RNA-seq of brain myeloid cells from 4 months old wild type (WT) and 5×FAD mice were injected with Visudyne alone (Vis., functional meningeal lymphatics) or injected with Visudyne and subjected to transcranial photoconversion (Vis.+photo., ablated meningeal lymphatics). Meningeal lymphatic ablation step was performed twice within a span of 3 weeks and brain myeloid cells were isolated 3 weeks after the last step. Data were obtained from sorted live Ly6G^negCD45^+CD11b^+ brain myeloid cells pooled from 3 mice per group (FIGS. 14A-B). Unsupervised clustering of brain myeloid single cells using t-distributed Stochastic Neighbor Embedding (t-SNE) plotted by group (FIG. 14A) or by distinct cell cluster (FIG. 14B). Frequency of cells from each cluster within the total 354, 487 and 308 cells from WT Vis., 5×FAD Vis. and 5×FAD Vis.+photo. groups, respectively (FIG. 14C). Genes involved in the acquisition of the disease-associated microglia phenotype, depicting the homeostatic, TREM2-independent and TREM2-dependent signatures within each cell were depicted in a heatmap (FIG. 14D). Cells are grouped by cluster and genes are grouped by signature (FIG. 14D). Upset plots were generated for all cells (FIG. 14E) or cluster 1 cells (FIG. 14F) showing the overlap in differentially expressed genes for comparisons between 5×FAD Vis. or 5×FAD Vis.+photo. and WT Vis. […] Expression values are averaged across cells within each group. Normalized enrichment score for GSEA pathways were obtained by Fisher's exact test with Benjamini-Hochberg corrections for the 24 differentially expressed genes in cluster 1 is shown in FIG. 14H. Enrichment analysis was performed in R using the clusterProfiler package. Depicted in FIG. 14I is a heatmap showing the mean-centered average log normalized expression of each gene contributing to the core-enrichment of the “Lysosome” GSEA pathway. Expression values are averaged across cells within each group. All scales show mean-centered, log-normalized expression values."}, "[2]": {"system": "mice", "assay": "Novel location recognition test", "type": "in vivo", "conditions": "Visudyne/photoconversion twice, adult mice", "procedure": "Novel location recognition test was performed following a published protocol^52 with modifications. The experimental apparatus used in this study was the same square box made of opaque white plastic (35 cm×35 cm) used in the Open field test. The mice were first habituated to the apparatus for 15 min. Two different plastic objects (one red and the other blue and with different shapes) were then positioned in a defined spatial orientation, namely on each corner of the arena and 5 cm away from each adjacent arena wall. Mice were then placed in the arena (by a blinded experimenter), facing the wall farther away from the objects and allowed to explore the arena and objects for 10 min. Twenty-four hours later, the mice were placed in the same box with the same two objects, but one of them had switched location and was placed in a new quadrant, obliquely to the familiar object (novel location test). The time spent exploring the objects in the familiar and novel locations was also measured for 10 min. Exploration of an object was assumed when the mouse approached an object and touched it with its vibrissae, snout or forepaws and was measured using a video tracking software (TopScan, CleverSys, Inc.). The object location preference (% of time with object) was calculated as the exploration time of the objects in the familiar or in the novel location/total exploration time."}, "[3]": {"conditions": "5xFAD mice, Visudyne + photoconversion, cluster 1 brain myeloid cells"}, "[4]": {"conditions": "5xFAD mice, Visudyne alone, cluster 1 brain myeloid cells"}, "[5]": {"conditions": "WT mice, Visudyne alone, cluster 1 brain myeloid cells"}},
  "note": "“Also recorded” adds a separate entry of the source.",
  "data": [
    {"substance": "verteporfin [Visudyne]", "values": [
      {"measurement": "Rel. Expr. 5xFAD Vis. + photo: Atp5h", "setting": "[1]; [3]", "result": "+"},
      {"measurement": "Rel. Expr. 5xFAD Vis. + photo: Axl", "setting": "[1]; [3]", "result": "+"},
      {"measurement": "Rel. Expr. 5xFAD Vis. + photo: Ctdnep1", "setting": "[1]; [3]", "result": "+"},
      {"measurement": "Rel. Expr. 5xFAD Vis. + photo: Eef1a1", "setting": "[1]; [3]", "result": "+"},
      {"measurement": "Rel. Expr. 5xFAD Vis. + photo: Fabp5", "setting": "[1]; [3]", "result": "+"},
      {"measurement": "Rel. Expr. 5xFAD Vis. + photo: Fau", "setting": "[1]; [3]", "result": "+"},
      {"measurement": "Rel. Expr. 5xFAD Vis. + photo: Fth1", "setting": "[1]; [3]", "result": "+"},
      {"measurement": "Rel. Expr. 5xFAD Vis. + photo: Ftl1", "setting": "[1]; [3]", "result": "+"},
      {"measurement": "Rel. Expr. 5xFAD Vis. + photo: H2-K1", "setting": "[1]; [3]", "result": "+"},
      {"measurement": "Rel. Expr. 5xFAD Vis. + photo: HS-Q7", "setting": "[1]; [3]", "result": "+"},
      {"measurement": "Rel. Expr. 5xFAD Vis. + photo: Hspb11", "setting": "[1]; [3]", "result": "+"},
      {"measurement": "Rel. Expr. 5xFAD Vis. + photo: Ifitm3", "setting": "[1]; [3]", "result": "+"},
      {"measurement": "Rel. Expr. 5xFAD Vis. + photo: Lgals3bp", "setting": "[1]; [3]", "result": "+"},
      {"measurement": "Rel. Expr. 5xFAD Vis. + photo: Lpl", "setting": "[1]; [3]", "result": "+"},
      {"measurement": "Rel. Expr. 5xFAD Vis. + photo: Nampt", "setting": "[1]; [3]", "result": "+"},
      {"measurement": "Rel. Expr. 5xFAD Vis. + photo: Rtp4", "setting": "[1]; [3]", "result": "+"},
      {"measurement": "Rel. Expr. 5xFAD Vis. + photo: Tfdp1", "setting": "[1]; [3]", "result": "+"},
      {"measurement": "Rel. Expr. 5xFAD Vis. + photo: Tmsb4x", "setting": "[1]; [3]", "result": "+"},
      {"measurement": "Rel. Expr. 5xFAD Vis. + photo: Tpt1", "setting": "[1]; [3]", "result": "+"},
      {"measurement": "Rel. Expr. 5xFAD Vis. + photo: Tyrobp", "setting": "[1]; [3]", "result": "+"},
      {"measurement": "Rel. Expr. 5xFAD Vis. + photo: Uba52", "setting": "[1]; [3]", "result": "+"},
      {"measurement": "Rel. Expr. 5xFAD Vis.: Atp5h", "setting": "[1]; [4]", "result": "+"},
      {"measurement": "Rel. Expr. 5xFAD Vis.: Ctdnep1", "setting": "[1]; [4]", "result": "+"},
      {"measurement": "Rel. Expr. 5xFAD Vis.: Fabp5", "setting": "[1]; [4]", "result": "+"},
      {"measurement": "Rel. Expr. 5xFAD Vis.: Fau", "setting": "[1]; [4]", "result": "+"},
      {"measurement": "Rel. Expr. 5xFAD Vis.: Fth1", "setting": "[1]; [4]", "result": "+"},
      {"measurement": "Rel. Expr. 5xFAD Vis.: Ftl1", "setting": "[1]; [4]", "result": "+"},
      {"measurement": "Rel. Expr. 5xFAD Vis.: H2-K1", "setting": "[1]; [4]", "result": "+"},
      {"measurement": "Rel. Expr. 5xFAD Vis.: Hexb", "setting": "[1]; [4]", "result": "+"},
      {"measurement": "Rel. Expr. 5xFAD Vis.: Ifitm3", "setting": "[1]; [4]", "result": "+"},
      {"measurement": "Rel. Expr. 5xFAD Vis.: Lgals3bp", "setting": "[1]; [4]", "result": "+"},
      {"measurement": "Rel. Expr. 5xFAD Vis.: Lgmn", "setting": "[1]; [4]", "result": "+"},
      {"measurement": "Rel. Expr. 5xFAD Vis.: Lpl", "setting": "[1]; [4]", "result": "+"},
      {"measurement": "Rel. Expr. 5xFAD Vis.: Nampt", "setting": "[1]; [4]", "result": "+"},
      {"measurement": "Rel. Expr. 5xFAD Vis.: Tyrobp", "setting": "[1]; [4]", "result": "+"},
      {"measurement": "expression of genes of the GSEA lysosome pathway (Table 7, FIG. 14I)", "setting": "[1]; 5xFAD mice, Visudyne with photo ablation, brain myeloid cells", "result": "relatively downregulated"},
      {"measurement": "expression of 24 genes (Table 6) in cluster 1 brain myeloid cells, 5xFAD Vis.+photo. vs WT Vis.", "setting": "[1]; Visudyne + photoconversion twice within 3 weeks", "result": "significantly different"},
      {"measurement": "expression of 24 genes (Table 6) in cluster 1 brain myeloid cells, 5xFAD Vis. vs WT Vis.", "setting": "[1]; Visudyne alone, no photoconversion", "result": "not significantly different"},
      {"measurement": "Rel. Expr. WT Vis.: Hexb", "setting": "[1]; [5]", "result": "+"},
      {"measurement": "Rel. Expr. WT Vis.: Lgmn", "setting": "[1]; [5]", "result": "+"},
      {"measurement": "NLR novel location task (time with object in novel location)", "setting": "[2]", "result": "No differences between the groups; also recorded: identical"},
      {"measurement": "NLR training performance", "setting": "[2]", "result": "identical"}
    ]}
  ]
}
